The values that follow come from US12226381B2, “Composition of fused tricyclic gamma-amino acid derivatives and the preparation thereof” (SICHUAN HAISCO PHARMACEUTICAL CO., LTD., priority 2018, dated 2025).

The assay has as its system CCI molded SD rats. Kind of assay: Rat CCI-induced nociception sensitization model, mechanical pain threshold. In kind it is in vivo. Conditions: single oral administration; for mechanical pain threshold: FIGS. 2 and 3. As for the experimental part: 3. Rat CCI-Induced Nociception Sensitization Model
SD rats of 160-180 g were purchased from Charles River (Beijing) with a license number of sCXK (Beijing)-2012-001 and a qualification number of 11400700254251. The surgery was performed to establish the CCI model as follows: the animals ware first anesthetized, then the left posterior sciatic nerve was exposed. A 2 mm long PE-90 catheter was applied to the middle site of the sciatic nerve. Finally the muscle and skin were sutured. Adaptation of the animal's left hind limb at 15g was carried out from day 10 after the surgery, three times a week.
The baseline testing was performed 17 days after surgery (starting from 2g at the time of testing, with an upper limit of 8g and a lower limit of 1g which is the −24h point), with a pain threshold of 1-4g as a grouping criterion. Grouping was done according to baseline test results, with 10 animals per group. The animals in the group were fasted but given water overnight. On the second day, mechanical pain values were tested at 2 h, 4 h and 6 h after oral/intragastric administration. The test started at 8 g, with an upper limit of 15g and a lower limit of 1g.
The data were processed according to equation (1) to calculate the PWT 50% value, where Xf is the log value of the final test fibers used in the test, k is a table value (Chaplan et al., 1994), and δ is the mean difference (here 0.224). PWT50%(g)=(10[Xf+kδ])/10000 [equation (1)]
The data were expressed in a form of mean±standard deviation (X±s) and were statistically analyzed using one-way ANOVA and Dunnett's t test (Graphpad prism 6.01).

In the case of `NC[C@@]1(CC(=O)O)[C@@H]2CC[C@H]3C[C@@H]2[C@@H]1C3.O=S(=O)(O)c1ccccc1` [Compound 1], the effective dose is listed as 3 mg/kg and the mechanical pain threshold entry is “significantly increased”.
As to `CC(C)C[C@H](CN)CC(=O)O` [pregabalin], the effective dose is given as 10 mg/kg and the mechanical pain threshold entry is given as “significantly increased”.
